# Test results from patent US20250199015A1, “CYCLIN-DEPENDENT KINASE 2 INHIBITORS FOR MEDICAL TREATMENT” (INCYCLIX BIO, LLC, priority 2022, published 2025).
# Where “and” joins values, the source holds several entries; their conditions need not be identical. Identical values can stand only once. Entries after “also recorded” stand apart in the source; their conditions may differ. Like-named read-outs stand apart in the source and are kept apart here.
# How the values were obtained:
# [1] = target: CDK2/Cyclin E (CDK2/E) (Homo sapiens, UniProt P24941); experiment: Caliper microfluidic kinase assay (Nanosyn); assay type: biochemical
# Protocol: Kinase phosphorylation assays were performed using a caliper technology microfluidics platform (Caliper Assay Platform). With this system, the target enzyme is incubated with fluorescently labeled substrate and test compounds in a standardized reaction mixture in 384 well plates. Upon termination of the reaction, samples are introduced onto microfluidic chips. The samples migrate through channels in the chips and product and substrate are separated based on the difference in their charge and mass (electrophoretic mobility shift). Enzyme activity is measured by direct comparison of the fluorescence in the product and substrate peaks.
# Protein kinase activity was measured against multiple CDKs and their binding partners: CDK1/Cyclin B (CDK1/B), CDK2/Cyclin A (CDK2/A), and CDK2/Cyclin E (CDK2/E), CDK3/Cyclin E (CDK3/E), CDK4/Cyclin D1 (CDK4/D1), CDK6/Cyclin D3 (CDK6/D3), CDK5/p35 (CDK5/p35), CDK7/Cyclin H (CDK7/H), CDK9/Cyclin T1 (CDK9/T). Test compounds were diluted in 100% DMSO using 3-fold dilution steps. […] Compounds were tested in a single well for each dilution, and the final concentration of DMSO in all assays was kept at 1%.
# [2] = tested on: phosphorylated Rb (pRb 807/811) in MCF7PDRC15-1 cells; experiment: Western blot pRb, palbociclib-resistant MCF7; assay type: cell-based, human
# Protocol: Cells were harvested, counted and then plated at 300,000 cells/well in 60 mm tissue culture treated dishes. […] Lysates were clarified by centrifugation at 12,000×g for 15 min at 4° C. and supernatants were transferred to clean tubes. A BCA assay was performed to determine the protein concentration of each lysate. A total of 25 μg of protein was mixed with sample buffer and reducing agent before being run on a 4-12% SDS-PAGE. Protein was transferred to a nitrocellulose membrane and blocked with LI-COR blocking buffer for 1 hour. Membranes were incubated overnight in primary antibody at 4° C. Following 3 washes with TBST, membranes were incubated for 60 minutes in LI-COR secondary antibodies. Following 3 washes in TBST, and one TBS wash, membranes were scanned using a LI-COR OdysseyCLx. Image studio was used for image analysis.
# [3] = tested on: pRb T821 in COV318 cells; experiment: Western blot pRb; assay type: cell-based, human; conditions: 30-1000 nM, 24 hours
# Protocol: Cells were plated at 300,000 cells/well in Corning 6 cm tissue culture treated plates. […] Cells were collected by washing each well twice with cold PBS, then scraping cells in the presence of 75 μL cold RIPA with protease and phosphatase inhibitors. Lysates were clarified by centrifugation at 12,000×g for 15 min at 4° C. and supernatants transferred to clean tubes. A BCA assay was performed to determine the protein concentration of each lysate. […] Protein was transferred to a nitrocellulose membrane and blocked with LI-COR blocking buffer for 1 hour. Membranes were incubated overnight in primary antibody at 4° C. Following 3 washes with TBS-T, membranes were incubated for 60 minutes in LI-COR secondary antibodies. Following 3 washes in TBS-T, and one TBS wash, membranes were scanned using a LI-COR OdysseyCLx. Image studio was used for image analysis.
# [4] = target: Human recombinant COX1 (PTGS1) (Homo sapiens, UniProt P23219); experiment: COX1 enzyme inhibition (fluorimetry); assay type: biochemical
# [5] = tested on: CYP3A4 transcription; experiment: CYP induction (transcription); assay type: in vitro ADME; conditions: up to 3 μM, 24 hours
# [6] = target: T1, human OAT1 (Homo sapiens, UniProt Q4U2R8); experiment: SLC transporter inhibition in HEK293 cells; assay type: in vitro ADME
# T1 construct: expressed in transfected cells; host or cells: HEK293
# [7] = target: T2, human OATP1B3 (Homo sapiens, UniProt Q9NPD5); experiment: SLC transporter inhibition in HEK293 cells; assay type: in vitro ADME
# T2 construct: expressed in transfected cells; host or cells: HEK293
# T2 sequence (Q9NPD5 1-702): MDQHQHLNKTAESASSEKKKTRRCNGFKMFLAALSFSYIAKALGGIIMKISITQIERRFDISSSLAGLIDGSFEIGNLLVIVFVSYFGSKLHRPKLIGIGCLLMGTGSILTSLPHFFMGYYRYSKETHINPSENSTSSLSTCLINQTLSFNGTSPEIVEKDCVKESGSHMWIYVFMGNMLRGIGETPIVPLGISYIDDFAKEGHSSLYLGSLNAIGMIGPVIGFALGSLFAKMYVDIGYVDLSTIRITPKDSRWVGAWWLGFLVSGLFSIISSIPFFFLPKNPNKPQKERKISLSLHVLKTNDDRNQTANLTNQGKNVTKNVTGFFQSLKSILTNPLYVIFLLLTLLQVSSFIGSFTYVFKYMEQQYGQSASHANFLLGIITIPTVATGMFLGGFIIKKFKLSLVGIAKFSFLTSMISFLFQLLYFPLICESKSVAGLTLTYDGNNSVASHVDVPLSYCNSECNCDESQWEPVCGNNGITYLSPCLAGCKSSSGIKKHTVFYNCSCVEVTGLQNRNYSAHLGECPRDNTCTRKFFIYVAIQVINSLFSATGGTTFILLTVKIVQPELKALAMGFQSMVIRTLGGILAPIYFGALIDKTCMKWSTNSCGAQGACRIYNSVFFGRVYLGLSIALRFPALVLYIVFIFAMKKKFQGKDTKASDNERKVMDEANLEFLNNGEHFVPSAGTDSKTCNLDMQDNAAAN
# [8] = target: multidrug resistance mutation (MDR) 1 (Homo sapiens, UniProt P08183); experiment: Transporter inhibition; assay type: in vitro ADME
# [9] = GLP 28-day oral toxicity and toxicokinetics study; assay type: in vivo, Sprague Dawley rats; conditions: for AUC0-24 / AUC(0-t) / Cmax / Tmax / half-life: po; for half-life: t1/2
# Protocol: One-hundred and sixty (80 per sex) Sprague Dawley rats were randomly assigned to groups and dosed once daily via oral gavage for 28 consecutive days.
# Nominal dose values and sampling times were used for calculations. Any concentration reported as BLQ (LLOQ<1.0 ng/ml) was set equal to zero. Toxicokinetic analyses included Cmax, Tmax, AUC0-24, t1/2, RA Cmax, and RA AUC0-24.
# Based on the absence of toxicity, the 28-day maximum tolerated dose (MTD) (also the no observed adverse effect level [NOAEL]) was 1000 mg/kg/day, the highest dose level tested. […] Respiratory function was also not affected by Compound I at any dose level.
# [10] = female, Sprague Dawley, rat, in vivo, 100 mg/kg/day
# [11] = female, Sprague Dawley, rat, in vivo, 300 mg/kg/day
# [12] = female, Sprague Dawley, rat, in vivo, 1000 mg/kg/day
# [13] = male, Sprague Dawley, rat, in vivo, 100 mg/kg/day
# [14] = male, Sprague Dawley, rat, in vivo, 300 mg/kg/day
# [15] = male, Sprague Dawley, rat, in vivo, 1000 mg/kg/day
# T1 sequence (Q4U2R8 whole entry): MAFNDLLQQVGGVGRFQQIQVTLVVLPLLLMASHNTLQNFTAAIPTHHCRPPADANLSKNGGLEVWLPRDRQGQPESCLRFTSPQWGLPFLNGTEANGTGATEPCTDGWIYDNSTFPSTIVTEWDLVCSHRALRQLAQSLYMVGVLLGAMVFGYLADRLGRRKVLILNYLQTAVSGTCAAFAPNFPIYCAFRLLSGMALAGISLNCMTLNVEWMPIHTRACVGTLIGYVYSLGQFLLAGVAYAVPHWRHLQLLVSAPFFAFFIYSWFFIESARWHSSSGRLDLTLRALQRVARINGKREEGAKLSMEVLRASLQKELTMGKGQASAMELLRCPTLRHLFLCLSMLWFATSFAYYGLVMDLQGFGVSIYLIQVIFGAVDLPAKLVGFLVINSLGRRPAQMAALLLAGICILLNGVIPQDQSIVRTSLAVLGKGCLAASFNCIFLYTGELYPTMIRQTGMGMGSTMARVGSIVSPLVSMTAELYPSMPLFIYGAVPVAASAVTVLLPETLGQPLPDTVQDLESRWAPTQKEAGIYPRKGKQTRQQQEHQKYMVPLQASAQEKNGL
# Human recombinant COX1 (PTGS1), sequence (P23219 24-599): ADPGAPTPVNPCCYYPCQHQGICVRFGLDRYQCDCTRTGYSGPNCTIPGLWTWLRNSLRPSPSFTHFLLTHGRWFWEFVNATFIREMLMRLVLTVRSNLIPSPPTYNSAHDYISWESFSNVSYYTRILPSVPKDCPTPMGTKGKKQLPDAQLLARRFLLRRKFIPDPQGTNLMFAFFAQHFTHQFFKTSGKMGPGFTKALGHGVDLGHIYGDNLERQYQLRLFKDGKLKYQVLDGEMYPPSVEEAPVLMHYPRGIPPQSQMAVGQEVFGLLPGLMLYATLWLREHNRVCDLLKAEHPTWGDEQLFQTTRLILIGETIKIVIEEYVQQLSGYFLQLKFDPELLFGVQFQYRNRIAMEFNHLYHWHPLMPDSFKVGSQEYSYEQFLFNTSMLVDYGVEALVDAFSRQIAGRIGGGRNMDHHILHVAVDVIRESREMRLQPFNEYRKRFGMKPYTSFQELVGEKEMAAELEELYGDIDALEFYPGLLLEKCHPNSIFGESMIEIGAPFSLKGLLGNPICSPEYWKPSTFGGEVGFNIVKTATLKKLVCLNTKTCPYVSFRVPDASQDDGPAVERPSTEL
compound,measurement,setting,value
NS(=O)(=O)c1ccc(Nc2ncc3cc4n(c3n2)C2(CCCCC2)C(=O)NN4)cc1 [Compound I],IC50,"[1]; 12-point dose-response, 1 μM to 0.0056 nM, read-out: IC50 against CDK2/E",0.6 nM and 0.56 nM
same,inhibition compared with other CDK/cyclin combinations,[1]; FIG. 1A panel,greatest inhibition of CDK2/E and CDK2/A
same,phosphorylated Rb (pRb) levels,"[2]; 30-1000 nM, 24 hours, no palbociclib",little reduction in phosphorylated Rb (pRb) levels
same,phosphorylated Rb (pRb) levels,[2]; co-administered with 1 μM palbociclib,substantial reduction in pRb levels
same,pRb levels,[3],dose-dependent decrease in pRb levels
same,IC50,[4],260 nM
same,induction of CYP3A4 transcription,[5],no observed induction
same,OAT1 inhibition,[6],did not inhibit
same,Maximum Percent inhibition,"[6]; OAT1, HEK293 cells",30%
same,Maximum Percent inhibition,"[7]; OATP1B3, HEK293 cells",91%
same,IC50,"[7]; OATP1B3, HEK293 cells, read-out: IC50",6220 nM
same,IC50,[7]; read-out: OATP1B3 IC50,6220 nM
same,MDR1 inhibition,[8],did not inhibit
same,tolerability,"[9]; PO, up to 28 days, up to 1000 mg/kg/day",generally well tolerated; also recorded: well tolerated in rats without adverse effects of any sort
same,mean body weight and body weight gain,[9]; any dose level,did not affect
same,MTD at 28 days,"[9]; both sexes, Sprague Dawley, rat, in vivo, oral, highest dose level tested, read-out: 28-day maximum tolerated dose (MTD) (also NOAEL)",1000 mg/kg/day
same,AUC0-24,[9]; [10],7570 ng·h/mL
same,AUC(0-t),"[9]; female, Sprague Dawley, rat, in vivo, 100 mg/kg/day, AUC0-24",9580 ng·h/mL
same,Cmax,"[9]; female, Sprague Dawley, rat, in vivo, 100 mg/kg/day, Cmax",3330 ng/mL
same,Tmax,[9]; [10],0.25 h
same,half-life,[9]; [10],3.93 h
same,AUC0-24,[9]; [11],11600 ng·h/mL
same,AUC(0-t),"[9]; female, Sprague Dawley, rat, in vivo, 300 mg/kg/day, AUC0-24",11400 ng·h/mL
same,Cmax,"[9]; female, Sprague Dawley, rat, in vivo, 300 mg/kg/day, Cmax",3070 ng/mL
same,Tmax,[9]; [11],0.5 h
same,half-life,[9]; [11],3.98 h
same,AUC0-24,[9]; [12],12700 ng·h/mL
same,AUC(0-t),"[9]; female, Sprague Dawley, rat, in vivo, 1000 mg/kg/day, AUC0-24",12600 ng·h/mL
same,Tmax,[9]; [12],0.5 h
same,AUC(0-t),"[9]; female, Sprague Dawley, rat, in vivo, 1000 mg/kg/day, plasma AUC0-24",12700 ng·h/mL
same,Cmax,"[9]; female, Sprague Dawley, rat, in vivo, 1000 mg/kg/day, plasma Cmax",1390 ng/mL
same,half-life,[9]; [12],5.89 h
same,AUC0-24,[9]; [13],8310 ng·h/mL
same,AUC(0-t),"[9]; male, Sprague Dawley, rat, in vivo, 100 mg/kg/day, AUC0-24",11000 ng·h/mL
same,Cmax,"[9]; male, Sprague Dawley, rat, in vivo, 100 mg/kg/day, Cmax",1010 ng/mL
same,half-life,[9]; [13],3.27 h
same,AUC0-24,[9]; [14],9750 ng·h/mL
same,AUC(0-t),"[9]; male, Sprague Dawley, rat, in vivo, 300 mg/kg/day, AUC0-24",10700 ng·h/mL
same,Tmax,[9]; [14],0.5 h
same,half-life,[9]; [14],5.54 h
same,AUC0-24,[9]; [15],8130 ng·h/mL
same,AUC(0-t),"[9]; male, Sprague Dawley, rat, in vivo, 1000 mg/kg/day, AUC0-24",11300 ng·h/mL
same,AUC(0-t),"[9]; male, Sprague Dawley, rat, in vivo, 1000 mg/kg/day, plasma AUC0-24",8130 ng·h/mL
same,Cmax,"[9]; male, Sprague Dawley, rat, in vivo, 1000 mg/kg/day, plasma Cmax",647 ng/mL
same,half-life,[9]; [15],9.35 h
same,accumulation after 28 days of once-daily dosing,"[9]; rat, in vivo",no accumulation
